Measured values taken from patent publication US10654832B2, “3-(benzoimidazol-2-YL)-indazole inhibitors of the Wnt signaling pathway and therapeutic uses thereof” (Samumed, LLC, priority 2013, dated 2020).

Tested on: Wnt activity (wnt-responsive SP5 promoter luciferase reporter in SW480 cells)
Assay: Wnt activity reporter assay (SP5 promoter-firefly luciferase in SW480 cells)
Assay type: cell-based
Conditions: Homo sapiens; SW480 colon cancer cells with SP5 promoter luciferase reporter; 24 h after compound addition; half-log dilutions, three micromolar top concentration; normalized to DMSO; read-out: Wnt inhibition
Text: The above synthesized compounds were screened using the assay procedure for Wnt activity described below.
Reporter cell lines were generated by stably transducing cells of cancer cell lines (e.g., colon cancer) with a lentiviral construct that include a wnt-responsive promoter driving expression of the firefly luciferase gene.
Lentiviral constructs were made in which the SP5 promoter, a promoter having eight TCF/LEF binding sites derived from the SP5 promoter, was linked upstream of the firefly luciferase gene. The lentiviral constructs included a hygromycin resistance gene as a selectable marker. The SP5 promoter construct was used to transduce SW480 cells, a colon cancer cell line having a mutated APC gene that generates a truncated APC protein, leading to de-regulated accumulation of β-catenin.
Cultured SW480 cells bearing a reporter construct were distributed at approximately 10,000 cells per well into 384 well multiwell plates. Compounds were then added to the wells in half-log dilutions using a three micromolar top concentration. A series of control wells for each cell type received only buffer and compound solvent. Twenty-four hours after the addition of compound, reporter activity for luciferases was assayed, for example, by addition of the BrightGlo luminescence reagent (Promega) and the Victor3 plate reader (Perkin Elmer). Readings were normalized to DMSO only treated cells, and normalized activities were then used for the IC50 calculations.

CCCCC(=O)Nc1cncc(-c2ccc3[nH]nc(-c4nc5c(-c6ccccc6F)cccc5[nH]4)c3c2)c1 [Compound 66, N-(5-(3-(4-(2-Fluorophenyl)-1H-benzo[d]imidazol-2-yl)-1H-indazol-5-yl)pyridin-3-yl)pentanamide]
IC50: ≥ 4000 nM

O=C(Nc1cncc(-c2ccc3[nH]nc(-c4nc5c(N6CCCCC6)cccc5[nH]4)c3c2)c1)C1CCCCC1 [Compound 166, N-(5-(3-(4-(Piperidin-1-yl)-1H-benzo[d]imidazol-2-yl)-1H-indazol-5-yl)pyridin-3-yl)cyclohexanecarboxamide]
IC50: 445 nM

O=C(Nc1cncc(-c2ccc3[nH]nc(-c4nc5c(-c6ccc(F)cc6)cccc5[nH]4)c3c2)c1)c1ccccc1 [Compound 35, N-(5-(3-(4-(4-Fluorophenyl)-1H-benzo[d]imidazol-2-yl)-1H-indazol-5-yl)pyridin-3-yl)benzamide]
IC50: 161 nM

c1ccc(CNCc2cncc(-c3ccc4[nH]nc(-c5nc6ccccc6[nH]5)c4c3)c2)cc1 [Compound 239, 1-(5-(3-(1H-Benzo[d]imidazol-2-yl)-1H-indazol-5-yl)pyridin-3-yl)-N-benzylmethanamine]
IC50: 372 nM

CC(C)C(=O)Nc1cncc(-c2ccc3[nH]nc(-c4nc5c(-c6ccsc6)cccc5[nH]4)c3c2)c1 [Compound 249, N-(5-(3-(4-(Thiophen-3-yl)-1H-benzo[d]imidazol-2-yl)-1H-indazol-5-yl)pyridin-3-yl)isobutyramide]
IC50: 13 nM

CCCC(=O)Nc1cncc(-c2ccc3[nH]nc(-c4nc5c(-c6cccnc6)cccc5[nH]4)c3c2)c1 [Compound 89, N-(5-(3-(4-(Pyridin-3-yl)-1H-benzo[d]imidazol-2-yl)-1H-indazol-5-yl)pyridin-3-yl)butyramide]
IC50: 4 nM

CN1CCN(c2cccc3[nH]c(-c4n[nH]c5ccc(-c6cncc(NC(=O)C(C)(C)C)c6)cc45)nc23)CC1 [Compound 200, N-(5-(3-(4-(4-Methylpiperazin-1-yl)-1H-benzo[d]imidazol-2-yl)-1H-indazol-5-yl)pyridin-3-yl)pivalamide]
IC50: 76 nM

CC(C)CC(=O)Nc1cncc(-c2ccc3[nH]nc(-c4nc5ccccc5[nH]4)c3c2)c1 [Compound 218, N-(5-(3-(1H-Benzo[d]imidazol-2-yl)-1H-indazol-5-yl)pyridin-3-yl)-3-methylbutanamide]
IC50: 37 nM

O=C(Cc1ccccc1)Nc1cncc(-c2ccc3[nH]nc(-c4nc5c(-c6cccc(F)c6)cccc5[nH]4)c3c2)c1 [Compound 10, N-(5-(3-(4-(3-Fluorophenyl)-1H-benzo[d]imidazol-2-yl)-1H-indazol-5-yl)pyridin-3-yl)-2-phenylacetamide]
IC50: 69 nM

CC(C)(C)CC(=O)Nc1cncc(-c2ccc3[nH]nc(-c4nc5c(-c6cccnc6)cccc5[nH]4)c3c2)c1 [Compound 88, 3,3-Dimethyl-N-(5-(3-(4-(pyridin-3-yl)-1H-benzo[d]imidazol-2-yl)-1H-indazol-5-yl)pyridin-3-yl)butanamide]
IC50: 135 nM

CC(C)C(=O)Nc1cncc(-c2ccc3[nH]nc(-c4nc5c(-c6ccccn6)cccc5[nH]4)c3c2)c1 [Compound 129, N-(5-(3-(4-(Pyridin-2-yl)-1H-benzo[d]imidazol-2-yl)-1H-indazol-5-yl)pyridin-3-yl)isobutyramide]
IC50: 21 nM

CCCC(=O)Nc1cncc(-c2ccc3[nH]nc(-c4nc5c(N6CCN(C)CC6)cccc5[nH]4)c3c2)c1 [Compound 209, N-(5-(3-(4-(4-Methylpiperazin-1-yl)-1H-benzo[d]imidazol-2-yl)-1H-indazol-5-yl)pyridin-3-yl)butyramide]
IC50: 61 nM

c1ccc(-c2cccc3[nH]c(-c4n[nH]c5ccc(-c6cncc(CN7CCCC7)c6)cc45)nc23)nc1 [Compound 134, 3-(4-(Pyridin-2-yl)-1H-benzo[d]imidazol-2-yl)-5-(5-(pyrrolidin-1-ylmethyl)pyridin-3-yl)-1H-indazole]
IC50: 219 nM

Fc1ccc(-c2cccc3[nH]c(-c4n[nH]c5ccc(-c6cncc(CNCc7ccccc7)c6)cc45)nc23)cc1 [Compound 47, N-benzyl-1-(5-(3-(4-(4-Fluorophenyl)-1H-benzo[d]imidazol-2-yl)-1H-indazol-5-yl)pyridin-3-yl)methanamine]
IC50: 450 nM

Cc1ccncc1-c1ccc2[nH]nc(-c3nc4c(-c5ccccn5)cccc4[nH]3)c2c1 [Compound 125, 5-(4-Methylpyridin-3-yl)-3-(4-(pyridin-2-yl)-1H-benzo[d]imidazol-2-yl)-1H-indazole]
IC50: 54 nM

O=C(Nc1cncc(-c2ccc3[nH]nc(-c4nc5c(-c6cccc(F)c6)cccc5[nH]4)c3c2)c1)C1CCCCC1 [Compound 22, N-(5-(3-(4-(3-Fluorophenyl)-1H-benzo[d]imidazol-2-yl)-1H-indazol-5-yl)pyridin-3-yl)cyclohexanecarboxamide]
IC50: 180 nM

CCNCc1cncc(-c2ccc3[nH]nc(-c4nc5c(-c6ccccc6F)cccc5[nH]4)c3c2)c1 [Compound 54, N-((5-(3-(4-(2-Fluorophenyl)-1H-benzo[d]imidazol-2-yl)-1H-indazol-5-yl)pyridin-3-yl)methyl)ethanamine]
IC50: 46 nM

CCCCC(=O)Nc1cncc(-c2ccc3[nH]nc(-c4nc5c(-c6ccccn6)cccc5[nH]4)c3c2)c1 [Compound 138, N-(5-(3-(4-(Pyridin-2-yl)-1H-benzo[d]imidazol-2-yl)-1H-indazol-5-yl)pyridin-3-yl)pentanamide]
IC50: 18 nM

Fc1cccc(-c2cccc3[nH]c(-c4n[nH]c5ccc(-c6cccnc6)cc45)nc23)c1 [Compound 4, 3-(4-(3-Fluorophenyl)-1H-benzo[d]imidazol-2-yl)-5-(pyridin-3-yl)-1H-indazole]
IC50: 4 nM

CCCCC(=O)Nc1cncc(-c2ccc3[nH]nc(-c4nc5c(-c6cccnc6)cccc5[nH]4)c3c2)c1 [Compound 90, N-(5-(3-(4-(Pyridin-3-yl)-1H-benzo[d]imidazol-2-yl)-1H-indazol-5-yl)pyridin-3-yl)pentanamide]
IC50: 11 nM

Cc1cn(-c2cccc3[nH]c(-c4n[nH]c5ccc(-c6cncc(NC(=O)C7CCCC7)c6)cc45)nc23)cn1 [Compound 189, N-(5-(3-(4-(4-Methyl-1H-imidazol-1-yl)-1H-benzo[d]imidazol-2-yl)-1H-indazol-5-yl)pyridin-3-yl)cyclopentanecarboxamide]
IC50: 13 nM

O=C(Nc1cncc(-c2ccc3[nH]nc(-c4nc5c(-c6ccc(F)cc6)cccc5[nH]4)c3c2)c1)C1CCCC1 [Compound 45, N-(5-(3-(4-(4-Fluorophenyl)-1H-benzo[d]imidazol-2-yl)-1H-indazol-5-yl)pyridin-3-yl)cyclopentanecarboxamide]
IC50: 110 nM

CC(C)Nc1cncc(-c2ccc3[nH]nc(-c4nc5c(-c6ccoc6)cccc5[nH]4)c3c2)c1 [Compound 276, 5-(3-(4-(Furan-3-yl)-1H-benzo[d]imidazol-2-yl)-1H-indazol-5-yl)-N-isopropylpyridin-3-amine]
IC50: 16 nM

Nc1cncc(-c2ccc3[nH]nc(-c4nc5c(-c6cccnc6)cccc5[nH]4)c3c2)c1 [Compound 75, 5-(3-(4-(Pyridin-3-yl)-1H-benzo[d]imidazol-2-yl)-1H-indazol-5-yl)pyridin-3-amine]
IC50: 6 nM

CC(C)CC(=O)Nc1cncc(-c2ccc3[nH]nc(-c4nc5c(N6CCCCC6)cccc5[nH]4)c3c2)c1 [Compound 146, 3-Methyl-N-(5-(3-(4-(piperidin-1-yl)-1H-benzo[d]imidazol-2-yl)-1H-indazol-5-yl)pyridin-3-yl)butanamide]
IC50: 58 nM

CCCCC(=O)Nc1cncc(-c2ccc3[nH]nc(-c4nc5c(-n6cnc(C)c6)cccc5[nH]4)c3c2)c1 [Compound 186, N-(5-(3-(4-(4-Methyl-1H-imidazol-1-yl)-1H-benzo[d]imidazol-2-yl)-1H-indazol-5-yl)pyridin-3-yl)pentanamide]
IC50: 6 nM

Cc1cn(-c2cccc3[nH]c(-c4n[nH]c5ccc(-c6cncc(NC(=O)c7ccccc7)c6)cc45)nc23)cn1 [Compound 179, N-(5-(3-(4-(4-Methyl-1H-imidazol-1-yl)-1H-benzo[d]imidazol-2-yl)-1H-indazol-5-yl)pyridin-3-yl)benzamide]
IC50: 10 nM

Cc1ccncc1-c1ccc2[nH]nc(-c3nc4c(-c5cccnc5)cccc4[nH]3)c2c1 [Compound 77, 5-(4-Methylpyridin-3-yl)-3-(4-(pyridin-3-yl)-1H-benzo[d]imidazol-2-yl)-1H-indazole]
IC50: 63 nM

CC(C)C(=O)Nc1cncc(-c2ccc3[nH]nc(-c4nc5ccccc5[nH]4)c3c2)c1 [Compound 225, N-(5-(3-(1H-Benzo[d]imidazol-2-yl)-1H-indazol-5-yl)pyridin-3-yl) isobutyramide]
IC50: 28 nM

Fc1ccc(-c2cccc3[nH]c(-c4n[nH]c5ccc(-c6cncc(CN7CCCC7)c6)cc45)nc23)cc1 [Compound 38, 3-(4-(4-Fluorophenyl)-1H-benzo[d]imidazol-2-yl)-5-(5-(pyrrolidin-1-ylmethyl)pyridin-3-yl)-1H-indazole]
IC50: 153 nM

O=C(Nc1cncc(-c2ccc3[nH]nc(-c4nc5c(-c6ccoc6)cccc5[nH]4)c3c2)c1)C1CC1 [Compound 283, N-(5-(3-(4-(Furan-3-yl)-1H-benzo[d]imidazol-2-yl)-1H-indazol-5-yl)pyridin-3-yl)cyclopropanecarboxamide]
IC50: 57 nM

c1ccc(CNCc2cncc(-c3ccc4[nH]nc(-c5nc6c(-c7cccnc7)cccc6[nH]5)c4c3)c2)cc1 [Compound 95, N-Benzyl-1-(5-(3-(4-(pyridin-3-yl)-1H-benzo[d]imidazol-2-yl)-1H-indazol-5-yl)pyridin-3-yl)methanamine]
IC50: 163 nM
